The values below come from patent US5021419A, “Novel pyrazinoxide compound of NF-1616-904 and a pharmaceutical composition containing the same” (Otsuka Pharmaceutical Co., Ltd., priority 1987, dated 1991).

Data set [1] relates to superoxide radicals (O2^-) release from the peritoneal macrophage cells of guinea pig. Put plainly: Inhibitory effect against superoxide radicals (O2^-) release from peritoneal macrophage cells by FMLP stimulation, cytochrome C reduction (Pharmacological Test-2). The class given is cell-based. As to conditions: Cavia porcellus, Peritoneal macrophage cell; FMLP 10^-7 M; 2×10^6 cells/ml; OD550; read-out: 50% inhibitory concentration (IC50). How it is done:
Inhibitory effect of the pyrazinoxide compound of NF-1616-904 against superoxide radicals (O2^-) release from the peritoneal macrophage cells of guinea pig by stimulation:
Mineral oil was intraperitoneally administered to a guinea pig, then 96 hours after the administration, the peritoneal microphage cells were obtained.
Superoxide radicals (O2^-) were determined by means of reduction of cytochrome C according to the procedures described in an article by T. Matsumoto, et al. in Biochemical and Biophysical Research Communications, Vol. 88, No. 3 (1979), pages 974-979.
Thus, the peritoneal macrophage cells were added to make the final concentration of 2×10^6 cells/ml into 1 ml of 80 μM-cytochrome C solution, further the pyrazinoxide compound of NF-1616-904 was added thereto to make the test group sample. On the other hand, water added in place of the pyrazinoxide compound of NF-1616-904 to make the control group sample. Both test group and control group samples were subjected to a pure incubation at 37° C. for 1 minute.
As to the stimulating agent for releasing superoxide radicals (O2^-), formylmethionylleucylphenylalanine (FMLP) was added to make the final concentration of 10^-7 M into the above-mentioned test group sample and control group sample. Then, both samples were subjected to additional reaction for 1 minute. […]

Another data set has as its system Masugi nephritis. Put plainly: Anti-albuminuria activity in Masugi nephritis (Pharmacological Test-3). It is filed as in vivo, rat. As to conditions: oral; for Ratio of inhibition of albuminuria: 24 hours after NT, versus control; for Albuminuria: urine 24 hours after NT, mean±S.E., six rats, control 120 ± 30. How it is done: Anti-albuminuria activity of the pyrazinoxide compound of NF-1616-904 in Masugi nephritis
Rat nephrotoxin (hereinafter referred to as "NT") was prepared as follows. Thus, the kidney cortex of a rat was homogenized with an equal amount of physiological saline, then the thus obtained homogenate was admixed with Freund's complete adjuvant (manufacture by Difco Laboratories, Inc., Detroit, Mich., U.S.A.) in the ratio of 1:1. Then, 2 ml of this mixture was administered subcutaneously to a rabbit (body weight: 3.1 kg) to have said rabbit immunized. 1.5 Months after the immunization, the blood was sampled from the heart of said rabbit, and the serum was obtained thereform. The serum thus obtained was inactivated at 56° C. for 30 minutes, and subjected to fractionation by salting out with a aqueous solution saturated with 40% of ammonium sulfate. By sampling of immunoglobulin-γ-globulin (IgG) fraction, the desired NT was obtained.
This test was conducted by using Wisterstrain male rats having 150-160 g body weight. Pyrazinoxide compound of NF-1616-904 of the present invention […] were orally administered forcedly. Additionally, 1 ml of NT was administered intravenously to the tail vein of said rat. On the other hand, in place of pyrazinoxide compound of NF-1616-904, physiological saline was administered to other rats to make the control group.
The total amount of urinary protein being excreted in the urine during 24 hours after the administration of NT was determined by turbidity method using sulfosalicylic acid and bovine serum albumin (BSA) as the reference substance, according to procedures described in an article by F. Kingsbury, et al. in J. Lab. Clin. Med., Vol. 11, (1926), pages 981-989.
The ratio of inhibition of albuminuria (%) in the test group was calculated by referring to the measured value in the control group. The test results are shown in the following Table 2, in which each of the test data are shown at the mean value±S. E. of the six rats used in each of test and control groups.

The subject of another data set is P388/VCR cells. Put plainly: Effect for decreasing the tolerance against Vincristine in P388/VCR cells (Pharmacological Test-1). The class given is cell-based. As to conditions: Control group, NF-1616-902 0; 48 hours. The text has this:
Effect for decreasing the tolerance against Vincristine in P388/VCR cells

Take `COc1c(Cc2c[nH]c3ccccc23)[nH]c(=O)c(CC(C)C)[n+]1[O-]` [NF-1616-904]: in data set [1], the IC50 is 12 µM. Also, in the data set with Masugi nephritis (30 mg/kg), the “Ratio of inhibition of albuminuria” value is given as 62.5% and the Albuminuria stood at 45 ± 16 mg/day. Besides, in the data set with Masugi nephritis (60 mg/kg), the “Ratio of inhibition of albuminuria” value is given as 26.7% and the Albuminuria came out at 88 ± 18 mg/day.

`CC[C@]1(O)C[C@H]2CN(CCc3c([nH]c4ccccc34)[C@@](C(=O)OC)(c3cc4c(cc3OC)N(C=O)[C@H]3[C@@](O)(C(=O)OC)[C@H](OC(C)=O)[C@]5(CC)C=CCN6CC[C@]43[C@@H]65)C2)C1` [Vincristine]: in the data set on P388/VCR cells, the “Cytotoxic concentration of Vincristine” value amounted to 100 ng/mL.
